In patent US8802675B2, “Neuroprotective multifunctional compounds and pharmaceutical compositions comprising them” (priority 2009, dated 2014):

Assays:
[1] = target: T1, butyrylcholinesterase (BuChE) (Rattus norvegicus, UniProt Q9JKC1); test: Butyrylcholinesterase inhibition in rat brain homogenates (Ellman); format: biochemical; details: mean SEM, n=3 in triplicates
T1 construct: total cholinesterase (ChE) and butyrylcholinesterase (BuChE) activities in rat brain homogenates; from tissue; host or cells: brain homogenate (10% w/v) of adult Wistar rats
Experimental: Cholinesterase activity was determined in rat brain homogenate following incubation with varying concentrations of the multifunctional pro-chelators of the invention (also referred to herein as “carbamates”).
Ellman's colorimetric method was adapted for determination of total cholinesterase (ChE) and butyrylcholinesterase (BuChE) activities in rat brain homogenates. Brain tissue from adult Wistar rats was homogenized at 2% w/v (or 10% w/v, for BuChE) in 0.1 M sodium phosphate buffer, pH 7.4, with added NaCl 58.5 g/l and Triton X-100 0.05% v/v. Aliquots of homogenate (20 μl) were incubated with the test compounds for designed time intervals in phosphate buffer pH 7.4, before addition of 5,5′-dithiobis(2-nitrobenzoic) acid and either 1 mM acetylthiocholine iodide or 10 mM butyrylthiocholine iodide (Sigma, St. Louis, Mo.). The reaction was run at 37° C. in a final volume of […] in 96-well microplates and was followed at 412 nm for 5 min with a plate reader. In every experiment, cholinesterase-independent (nonspecific) substrate hydrolysis was determined by including one experimental group treated with tacrine 30 μM. Appropriate tissue and reagent blanks were also included. Reaction velocities were determined in three or four replicates per condition; these were averaged and expressed as percent activity relative to control (solvent), after subtracting the rate of nonspecific hydrolysis.
The results are the mean SEM, n=3 in triplicates. ND—not determined.

[2] = tested on: ChE from rat brain homogenates; test: Time course of total ChE inhibition at 1 μM versus rivastigmine; format: biochemical; details: for preincubation time to maximum (peak) inhibition on total ChE: 1 μM compound; for ChE inhibition compared with rivastigmine and other carbamates: 1 μM, time course
Experimental: The new carbamates of the present invention are expected to act as rivastigmine and inhibit ChE activity. […] Enzyme activity was determined with Ellman's colorimetric method after addition of substrate, and the results are shown in FIGS. 8A-8B.

[3] = Metal chelation assay (UV-vis spectra of metal complexes); format: physicochemical; details: 5% NH4Ac, pH=7; for complexation with Cu^2+ or Zn^2+: CuSO4 or ZnCl2, UV-vis; for interaction with Fe: FeCl3 or FeSO4, absorbance at 300 nm
Excerpt: Metal chelation, particularly iron chelation, is an important precondition for the antioxidative-function of the multi-functional compounds of the invention, because it is the excessive iron stores and iron-mediated generation of free radicals in the brain that are thought to be associated with neurodegenerative diseases. The novel strategy, according to the present invention, for the treatment of neurodegenerative diseases such as Alzheimer's disease is the design of pro-chelators that inhibit AChE with a concomitant release of the active chelators. This novel strategy has advantages over the current chelator strategy since it is capable not only of minimizing the potential toxicity associated with strong chelators such as the 8-hydroxyquinoline derivatives disclosed in WO 2004/041151, which might interfere with healthy metal metabolism in the brain, but it also offers multiple activities against AChE, Aβ aggregation, oxidative stress, and metal (Fe, Cu, Zn) dyshomeostasis in the brain. Therefore, a metal chelation assay was used to confirm that the new multifunctional pro-chelators that comprise an N,N-dialkylcarbamoyl moiety [N(RR′)CO—] linked to the oxygen at position 8 of quinoline would have little to no affinity for metal ions in their pro-drug form. When these pro-chelators bind to cholinesterase or AChE in the brain, the N,N-dialkylcarbamoyl moiety is dissociated, thus unmasking a free hydroxyl group at said position 8 of quinoline, turning the pro-chelators into active chelators, which passivate excess cerebral metal ions and protect neuronal cells against reactive oxygen species (ROS).
A spectrophotometric method was used for measurement of metal complexes of the multifunctional pro-chelators of the invention with metal ions selected from Zn^2+, Cu^2+, Fe^3+ and Fe^2+, and compared to the respective metal complexes of some known iron chelators disclosed in WO 2004/041151.
Thus, the metal chelating function of compound 13 and compound 23 as compared to M30 and HLA20, respectively, was measured by dissolving 0.1 mM or 0.2 mM of the test compounds in 5% NH4Ac, pH=7, in the presence and absence of 0.1 mM or 0.2 mM of the metal salts […], CuSO4, FeCl3 and FeSO4, and measuring the UV-vis spectra (Hewlett-Packard 8450A diode array spectrophotometer) of the various metal complexes formed. The results for M30 and compound 13 are shown in FIGS. 1A and 1B, respectively.

[4] = tested on: human SH-SY5Y neuroblastoma cells; test: MTT cell viability assay in SH-SY5Y cells; format: cell-based; details: MTT after 48 h incubation
Experimental: Cell culture. Human neuroblastoma SH-SY5Y cells were obtained from American Type Culture Collection (Rockville, Md., USA). Cells were routinely cultured in MEM-Eagle/F-12(HAM) (1:1), containing 10% FCS and a mixture of 2% sodium bicarbonate, 1% penicillin/streptomycin/nystatin and 1% sodium pyruvate. Cell cultures were incubated at 37° C. in a humid 5% CO2-95% air environment.
Twenty-four hours after attachment of the SH-SY5Y cells, the medium was replaced with DMEM containing 0.1% BSA. The test compounds were added to the cells after 1 h of incubation. After 24 h incubation, the cells were subjected to MTT test as previously described (Gassen et al., 1998). The absorption was determined in a Perkin-Elmer Dual Wavelength Eliza-Reader at λ=570/650 nm after automatic subtraction of background readings. The results are expressed as percentage of the untreated control.
The effect of the iron chelators M30 and HLA20 versus that of the pro-chelators 13 and 23, on viability of human SH-SY5Y cells was tested. Human SH-SY5Y neuroblastoma cells were plated in 100-mm culture dishes and cultured in DMEM (4,500 mg/l glucose), containing 10% FCS (fetal calf serum, Bet Haemek, Israel), and 1% of a mixture of penicillin/streptomycin/nystatin. When cells reached the required confluence, they were detached and re-cultured in microtiter plates (96 wells) pre-coated with collagen ([…]), in DMEM with 10% of fetal calf serum (0.5×10^4 cells/well). Cell viability was tested by the 3-(4,5-dimethylthiazol-2-yl)-2,5-diphenyltetrazolium (MTT) assays after 48 h incubation.

T1 sequence (Q9JKC1 24-597): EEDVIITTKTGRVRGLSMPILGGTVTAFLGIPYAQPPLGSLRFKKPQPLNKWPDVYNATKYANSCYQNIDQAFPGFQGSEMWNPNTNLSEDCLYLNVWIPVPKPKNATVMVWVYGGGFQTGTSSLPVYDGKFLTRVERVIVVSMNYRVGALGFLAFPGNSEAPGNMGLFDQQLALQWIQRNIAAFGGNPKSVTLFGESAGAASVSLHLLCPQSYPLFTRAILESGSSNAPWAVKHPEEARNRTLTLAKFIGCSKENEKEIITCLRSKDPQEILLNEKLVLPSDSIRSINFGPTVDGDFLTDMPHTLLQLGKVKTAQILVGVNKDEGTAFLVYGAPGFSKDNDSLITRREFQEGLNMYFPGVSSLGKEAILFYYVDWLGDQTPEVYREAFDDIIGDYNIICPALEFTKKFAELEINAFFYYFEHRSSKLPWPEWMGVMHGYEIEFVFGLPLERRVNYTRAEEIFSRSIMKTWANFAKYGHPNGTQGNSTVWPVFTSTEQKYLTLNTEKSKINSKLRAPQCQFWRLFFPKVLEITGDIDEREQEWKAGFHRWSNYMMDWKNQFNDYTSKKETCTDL

Row | SMILES | IC50 [1] [µM] | preincubation time to maximum (peak) inhibition on total ChE [2] [h] | ChE inhibition compared with rivastigmine and other carbamates [2] | complexation with Cu^2+ or Zn^2+ [3] | interaction with Fe [3] | cell viability ([4]; 10 μM) | cell viability ([4]; 25 μM) | cell viability ([4]; 50 μM) [%] | binding of metal ions (shift of absorbance peak) ([3]; ZnCl2, CuSO4, FeCl3 and FeSO4)
1 | C#CCN(C)Cc1ccc(OC(=O)N(C)CC)c2ncccc12 [Compound 3, 5-((methyl(propargyl)amino)methyl)quinolin-8-yl ethyl(methyl)carbamate] | 60.7 ± 5.33 | ≤ 1.5 | far less potent than the other carbamates |  |  |  |  |  | 
2 | C#CCN(C)Cc1ccc(OC(=O)N2CCCC2)c2ncccc12 [Compound 5, 5-((methyl(propargyl)amino)methyl)quinolin-8-yl pyrrolidine-1-carboxylate] | 31.2 ± 6.1 | ≤ 3 | far less potent than the other carbamates |  |  |  |  |  | 
3 | C#CCN(C)Cc1ccc(OC(=O)N2CCN(Cc3ccccc3)CC2)c2ncccc12 [Compound 13, 5-((methyl(propargyl)amino)methyl)quinolin-8-yl 4-benzyl piperazine-1-carboxylate] | 46 ± 3.5 |  | as potent as rivastigmine | little or no complexation | weak interaction | similar | significantly higher |  | 
4 | C#CCC1CCN(Cc2ccc(OC(=O)N(C)C)c3ncccc23)CC1 [Compound 23, 5-((4-(propargyl)piperidin-1-yl)methyl)quinolin-8-yl dimethylcarbamate] | 42.6 ± 6.67 | 2 | increasingly greater inhibition | little or no complexation | weak interaction | over 75% | over 75% | 40 | 
5 | C#CCN(C)Cc1ccc(O)c2ncccc12 [M30, reference compound] |  |  |  |  |  | similar |  |  | binds the respective metal ions
